Test results reported in US11970502B2, “Macrocyclic antiviral agents” (Enanta Pharmaceuticals, Inc., priority 2021, dated 2024).
Like-named read-outs stand apart in the source and are kept apart here.

Columns and labels:
SARS-CoV-2 3CL-protease = SARS-CoV-2 3CL-protease (Severe acute respiratory syndrome coronavirus 2, UniProt P0DTD1); assay: biochemical
[1] = system: 229E human corona virus (hCoV); assay: 229E Cellular Assay (MRC5), 229E live virus assay, ATPlite readout; format: cell-based, hCoV-229E
[2] = recombinant 3CL-protease 10 nM, substrate 40 μM, 30 min preincubation at RT, read-out: FRET IC50
[3] = Human coronavirus 229E, MRC5, 144 h; read-out: EC50 (229E)

CC(C)C[C@H]1C(=O)N[C@H](C#N)C[C@@H]2C[C@@H](C/C=C/C[C@H](NC(=O)OC(C)(C)C)C(=O)N1C)NC2=O [Example 1]
IC50 (SARS-CoV-2 3CL-protease): 0.1 to 1 µM
EC50 ([1]; Human coronavirus 229E, MRC5, 144 h, read-out: EC50 (229E)): > 1 µM

CC(C)C[C@H]1C(=O)N[C@H](C#N)C[C@@H]2C[C@@H](CCCC[C@H](NC(=O)OC(C)(C)C)C(=O)N1C)NC2=O [Example 2]
IC50 (SARS-CoV-2 3CL-protease; [2]): < 0.1 µM
EC50 ([1]; Human coronavirus 229E, MRC5, 144 h; MRC-5 cells, hCoV-229E MOI 0.05, 6 days at 34° C., ATPlite; read-out: EC50 (229E)): > 1 µM

CC(C)C[C@H]1C(=O)N[C@H](C#N)C[C@@H]2C[C@@H](CCCC[C@H](NC(=O)c3ccccc3Cl)C(=O)N1C)NC2=O [Example 3]
IC50 (SARS-CoV-2 3CL-protease; [2]): < 0.1 µM
EC50 [1, 3]: 0.1 to 1 µM

CC(C)C[C@H]1C(=O)N[C@H](C#N)C[C@@H]2C[C@@H](CCCC[C@H](NC(=O)c3ccccn3)C(=O)N1C)NC2=O [Example 4]
IC50 (SARS-CoV-2 3CL-protease; [2]): < 0.1 µM
EC50 [1, 3]: > 1 µM

CC(C)C[C@H]1C(=O)N[C@H](C#N)C[C@@H]2C[C@@H](CCCC[C@H](NC(=O)c3cc4c(F)cc(F)c(F)c4[nH]3)C(=O)N1C)NC2=O [Example 5]
IC50 (SARS-CoV-2 3CL-protease; [2]): 0.1 to 1 µM
EC50 [1, 3]: > 1 µM

CC(C)C[C@H]1C(=O)N[C@H](C#N)C[C@@H]2C[C@@H](CCCCc3nc(-c4ccccc4Cl)oc3N1C)NC2=O [Example 6]
IC50 (SARS-CoV-2 3CL-protease; [2]): 0.1 to 1 µM
EC50 [1, 3]: 0.1 to 1 µM
